Legend:
[1] = tested on: patients with diarrhea-predominant IBS; assay: Scintigraphic measurement of colonic transit (colonic geometric center at 24 hours) at baseline and after 6 weeks of alosetron; type: in vivo, human; settings: for change in colonic geometric center (ΔGC) at 24 hr: 6 weeks vs baseline, negative = slower transit
Description: Colonic transit can be monitored by known methods (Camilleri M. and Zinsmeister A. R., Gastroenterology 103:36-42 (1992); and Camilleri M. et al., Dig. Dis. Sci. 36:609-615 (1991)). In general, labeled (e.g., ^111In) pellets can be delivered to the colon by means of a methacrylate-coated, delayed-release capsule. Simultaneously, labeled (e.g., ^99mTc) pellets can be ingested in a scrambled egg, toast, and milk meal to facilitate measurement of gastric and small bowel transit. A large field gamma camera (e.g., GE 500, General Electric, Milwaukee, Wis.) with a medium energy parallel hole collimator can be used to obtain images. Typically, images are obtained with subjects in the erect position. A variable region of interest (ROI) program can be used to measure colonic transit, with abdominal images obtained at periodic intervals (e.g.,4, 6, 8, 24, 32, and 48 hours pre- or post-treatment. The amount of label can be determined from the abdominal images in four colonic regions: the ascending, transverse, descending, and combined sigmoid and rectum regions. These counts may be corrected for isotope decay and tissue attenuation, as described in Camilleri et al. (1991) and Camilleri and Zinsmeister (1992), referenced above. The colonic geometric center is the weighted average of counts in the four different colonic regions [ascending (AC), transverse (TC), descending (DC), rectosigmoid (RS) and stool]:
(% AC×1+% TC×2+% DC×3+% RS×4+% stool×5)/100=geometric center
A high geometric center implies faster colonic transit, while a reduction of geometric center with treatment implies a retardation of colonic transit.
Thirty patients with diarrhea-predominant IBS associated were studied. Gastrointestinal and colonic transit were performed during a baseline period and during the last week of a 6-week therapeutic trial with alosetron 1 mg twice daily (b.i.d.). Demographic data of the original 30 participants are as follows: mean age 43.2±3y (females 46±4y, males 40±4y); mean duration of IBS 11.2±2.0y (females 9.2±2.3y and males 13.1±3.2y). Twenty-three of the 30 patients agreed to participate in an evaluation of the influence of the genotype of the promoter region of the 5-HTTP gene. The demographics, gender, and duration of illness in the three groups of patients according to 5-HTTP genotype are shown in the table below.
An established scintigraphic method was used as referenced above. Briefly, ^111In pellets were delivered to the colon by means of a methacrylate-coated, delayed-release capsule. Simultaneously, ^99mTc pellets were ingested in a scrambled egg, toast, and milk meal (218 kcal) to facilitate measurement of gastric and small bowel transit. Subjects ingested standardized meals for lunch and dinner. A variable region of interest (ROI) program was used to measure colonic transit. Abdominal images at 4, 6, 8, 24, 32, and 48 hours were obtained using a large field of view gamma camera (GE 500, General Electric, Milwaukee, Wis.) with a medium energy parallel hole collimator. All images were obtained with the subjects in the erect position. Radioscintigraphic markers were placed for reference on the anterior ends of the iliac crests. Anterior and posterior images were obtained with the camera positioned over the abdomen. This facilitated subsequent correction of radioisotopic counts for tissue attenuation.
The counts in four colonic regions were determined: the ascending, transverse, descending, and combined sigmoid and rectum regions. These counts were corrected for isotope decay and tissue attenuation, as referenced above. The primary endpoint of investigation was the colonic geometric center at 24 hours. The colonic geometric center is the weighted average of counts in the four different colonic regions [ascending (AC), transverse (TC), descending (DC), rectosigmoid (RS) and stool]:
Thus, a high geometric center implies faster colonic transit, while a reduction of geometric center with treatment implies a retardation of colonic transit. […]

[2] = tested on: patients with diarrhea-predominant IBS; settings: cited from earlier work
[3] = by gender; cited from earlier work
[4] = females, alosetron 1 mg b.i.d., 6 weeks
[5] = males, alosetron 1 mg b.i.d., 6 weeks

Structure (SMILES): Cc1[nH]cnc1CN1CCc2c(c3ccccc3n2C)C1=O [alosetron]
- number of females in whom there was no effect on colonic transit [1, 4]: 2
- number of patients with retardation of colonic transit greater than the clinically significant threshold of 1.14 colonic regions [1, 4]: Nine
- change in colonic geometric center (ΔGC) at 24 hr ([1]; females, alosetron 1 mg b.i.d., p=0.005 vs males): −1.45±0.25 geometric center units
- colonic transit response by 5-HTTP promoter genotype (change of 1.14 units in ΔGC24h, FIG. 2) ([1]; genotype groups after treatment with alosetron): a greater response was observed in those with the long polymorphism
- proportion of high responders (slowing of colonic transit by more than 1.14 regions) ([1]; heterozygous 5-HTTP promoter genotype group): 2 of 11
- proportion of high responders (slowing of colonic transit by more than 1.14 regions) ([1]; long variant homozygous 5-HTTP promoter genotype group, Fisher's exact test p=0.024 vs heterozygous): 6 of 8
- colonic transit response by 5-HTTP promoter genotype ([1]; long/long homozygous vs long/short heterozygous patients, p=0.039): significantly higher response in long variant/long variant homozygous
- males with retardation of colonic transit at 24 hours equal to or greater than the mean change in females (1.45 geometric center units) [1, 5]: 2 of 15
- number of patients with retardation of colonic transit greater than the clinically significant threshold of 1.14 colonic regions [1, 5]: 3
- change in colonic geometric center (ΔGC) at 24 hr ([1]; males, alosetron 1 mg b.i.d.): −0.32±0.27 geometric center units
- colonic geometric centers at 24 hours following treatment compared to baseline ([1]; patients with IBS, alosetron 1 mg b.i.d., last week of 6-week trial, lower = slower colonic transit): significantly lower
- adequate relief of IBS pain and discomfort and normalization of bowel function ([2]; clinical trials, women with diarrhea-predominant IBS): beneficial effect
- effect on colonic transit in patients with diarrhea-predominant IBS ([2]; greater effect in females than males): significantly prolonged
- systemic exposure, females compared to males [3]: slightly greater systemic exposure

Reference: patent publication US20030143548A1, “Predicting patient responsiveness to serotonergic therapy” (priority 2002, published 2003)
